Data reported in patent US20220220152A1, “BIVALENT ANTAGONISTS OF INHIBITORS OF APOPTOSIS PROTEINS” (Hepagene Therapeutics (HK) Limited, priority 2019, published 2022).

How the values were obtained:
XIAP-BIR3 = biological target: T1, XIAP-BIR3 (Homo sapiens, UniProt P98170); assay: XIAP-BIR3 fluorescence polarization binding assay; settings: FP, probe AbuRPFK-5FAM (SM5F) 5 nM, XIAP-BIR3 40 nM, 60 min at 25° C.
T1 construct: XIAP-BIR3; purchased Reaction Biology APT-11-374
Excerpt: (§1) IAPs are one main cause of cancer development and may result from overexpression of anti-apoptotic proteins. This protocol establishes three binding assays for […] Bir3 domain, cIAP1 and cIAP2 using FP (fluorescence polariation) technology. The fluorescence probe used is a synthetic peptide conjugated to 5-carboxyfluorescein (AbuRPFK-5FAM). The fluorescence polarization value (mP) was detected by Envision, which was used to reflect the binding degree of protein and fluorescent marker.
(§2) • a. Prepare 100 times of the final cpd concentration in appropriate tube and transfer 5 uL cpd to 45 μL 1× reaction buffer with 10% DMSO • b. The final reference cpd concentration is 10000, 3333.3, 1111.1, 370.4, 123.4, 41.2, 13.7, 4.57, 1.52, 0.51, 0.17 and 0 nM. So the 100 times of the concentration is 1000, 333.3, 111.1, 37.04, 12.34, 4.12, […], 0.15, 0.05, 0.017 and 0 μM. The final test cpds concentration is 3333.3, 1111.1, 370.4, 123.4, 41.2, 13.7, 4.57, 1.52, 0.51, 0.17, 0.057 and 0 nM. So the 100 times of the concentration is 333.3, 111.1, 37.04, 12.34, 4.12, […], 0.15, 0.05, 0.017, 0.0057 and […] • c. Add 8 μL/well each dose enzyme to 384 wen microplate (ProxiPlate-384 F Plus, 6008260) using multichannel pipette, prepared in Table 3. • d. Centrifuge at 1000 rpm • e. Add 2 μL/well cpd to 384 well microplate (ProxiPlate-384 F Plus, 6008260) using multichannel pipette, prepared in step a). • f. Centrifuge at 1000 rpm RT, 15 min. • g Start the assay by adding 10 uL/well substrate (prepared in Table 4) to the same 384 wen microplate using multichannel pipette. • h. Centrifuge at 1000 rpm. • i. Cover the assay plate and incubate for 60 min at 25° C. • j. Read on Envision 2104 for mP and plot the IC50s with mP values. • k. Data analysis: IC50s were determined based on a non-linear regression analysis of data collected.

cIAP1-BIR3 = biological target: T2, cIAP1-BIR3 (Homo sapiens, UniProt Q13490); assay: cIAP1-BIR3 fluorescence polarization binding assay; settings: FP, probe AbuRPFK-5FAM (SM5F) 5 nM, cIAP1-BIR3 15 nM, 60 min at 25° C.
T2 construct: cIAP1-BIR3; purchased Reaction Biology APT-11-370
Excerpt: as §1, §2

cIAP2-BIR3 = biological target: T3, cIAP2-BIR3 (Homo sapiens, UniProt Q13489); assay: cIAP2-BIR3 fluorescence polarization binding assay; settings: FP, probe AbuRPFK-5FAM (SM5F) 5 nM, cIAP2-BIR3 80 nM, 60 min at 25° C.
T3 construct: cIAP2-BIR3; purchased Reaction Biology APT-11-372
Excerpt: as §1, §2

T1 sequence (P98170 241-356 limits assumed): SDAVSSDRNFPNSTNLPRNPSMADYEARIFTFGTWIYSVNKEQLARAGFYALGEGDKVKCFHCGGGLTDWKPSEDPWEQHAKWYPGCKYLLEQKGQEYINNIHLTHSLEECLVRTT
T3 sequence (Q13489 238-349 limits assumed): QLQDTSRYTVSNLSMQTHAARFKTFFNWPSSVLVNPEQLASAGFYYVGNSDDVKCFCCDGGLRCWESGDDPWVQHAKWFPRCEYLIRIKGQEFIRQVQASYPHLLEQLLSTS
T2 sequence (Q13490 253-363 limits assumed): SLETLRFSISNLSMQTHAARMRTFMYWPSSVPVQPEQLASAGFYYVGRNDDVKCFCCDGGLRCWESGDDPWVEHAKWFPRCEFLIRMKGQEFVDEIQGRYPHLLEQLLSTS

Row | IC50 (XIAP-BIR3) [nM] | IC50 (cIAP1-BIR3) [nM] | IC50 (cIAP2-BIR3) [nM] | SMILES
1 | 10 to 100 | 1 to 10 | 10 to 100 | CN[C@@H](C)C(=O)N[C@H](C(=O)N1CCC[C@H]1C(=O)N[C@@H]1CCCc2c(OCCCCCOc3cccc4c3CCC[C@H]4NC(=O)[C@@H]3CCCN3C(=O)[C@@H](NC(=O)[C@H](C)NC)C(C)C)cccc21)C(C)C [Compound I-G, (2S)-1-[(2S)-3-methyl-2-[(2S)-2-(methylamino)propanamido]butanoyl]-N-[(1R)-5-[(5-[[(5R)-5-[(2S)-1-[(2S)-3-methyl-2-[(2S)-2-(methylamino)propanamido]butanoyl]pyrrolidine-2-amido]-5,6,7,8-tetrahydronaphthalen-1-yl]oxy]pentyl)oxy]-1,2,3,4-tetrahydronaphthalen-1-yl]pyrrolidine-2-carboxamide]
2 | 10 to 100 | 1 to 10 | 1 to 10 | CN[C@@H](C)C(=O)N[C@H](C(=O)N1CCC[C@H]1C(=O)N[C@@H]1CCCc2c1cccc2N1CC2CN(c3cccc4c3CCC[C@H]4NC(=O)[C@@H]3CCCN3C(=O)[C@@H](NC(=O)[C@H](C)NC)C3CCCCC3)CC2C1)C1CCCCC1 (stereo partly drawn) [Compound VIII, (2S)-1-[(2S)-2-cyclohexyl-2-[(2S)-2-(methylamino)propanamido]acetyl]-N-[(1R)-5-[5-[(5R)-5-[(2S)-1-[(2S)-2-cyclohexyl-2-[(2S)-2-(methylamino)propanamido]acetyl]pyrrolidine-2-amido]-5,6,7,8-tetrahydronaphthalen-1-yl]-hexahydropyrrolo[3,4-c]pyrrol-2-yl]-1,2,3,4-tetrahydmnaphthalen-1-yl]pyrrolidine-2-carboxamide]
3 | 10 to 100 | 1 to 10 | 10 to 100 | CN[C@@H](C)C(=O)N[C@H](C(=O)N1CCC[C@H]1C(=O)N[C@@H]1CCCc2c(-c3cccc(-c4cccc5c4CCC[C@H]5NC(=O)[C@@H]4CCCN4C(=O)[C@@H](NC(=O)[C@H](C)NC)C4CCCCC4)c3)cccc21)C1CCCCC1 [III-A, (2S)-1-[(2S)-2-Cyclohexyl-2-[(2S)-2-(methylamino)propanamido]acetyl]-N-[(1R)-5-(3-[(5R)-5-[(2S)-1-[(2S)-2-cyclohexyl-2-[(2S)-2-(methylamino)propanamido]acetyl]pyrolidine-2-amido]-5,6,7,8-tetrahydronaphthalen-1-yl]phenyl)-1,2,3,4-tetrahydronaphthalen-1-yl]pyrrolidine-2-carboxamide]
4 | 10 to 100 | 1 to 10 | 10 to 100 | CN[C@@H](C)C(=O)N[C@H](C(=O)N1CCC[C@H]1C(=O)N[C@@H]1CCCc2c(NC(=O)c3cccc4c3CCC[C@H]4NC(=O)[C@@H]3CCCN3C(=O)[C@@H](NC(=O)[C@H](C)NC)C3CCOCC3)cccc21)C1CCOCC1 [Compound VII-B, (2S)-1[(2S)-2-[(2S)-2-(methylamino)propanamido]-2-(oxan-4-yl)acetyl]-N-[(1R)-5-[[(5R)-5-[(2S)-1[(2S)-2-[(2S)-2-(methylamino)propanamido]-2-(oxan-4-yl)acetyl]pyrrolidine-2-amido]-5,6,7,8-tetrahydronaphthalen-1-yl]carbamoyl]-1,2,3,4-tetrahydronaphthalen-1-yl]pyrrolidine-2-carboxamide]
5 | 100 to 1000 | 10 to 100 | 100 to 1000 | CN[C@@H](C)C(=O)N[C@H](C(=O)N1CCC[C@H]1C(=O)N[C@@H]1CCCc2cc(-c3ccc(-c4ccc5c(c4)CCC[C@H]5NC(=O)[C@@H]4CCCN4C(=O)[C@@H](NC(=O)[C@H](C)NC)C4CCCCC4)cc3)ccc21)C1CCCCC1 [Compound III-L, (2S)-1-[(2S)-2-cyclohexyl-2-[(2S)-2-(methylamino)propanamido]acetyl]-N-[(1R)-6-[4-[(5R)-5-[(2S)-1-[(2S)-2-cyclohexyl-2-[(2S)-2-(methylamino)propanamido]acetyl]pyrolidine-2-amido]-5,6,7,8-tetrahydronaphthalen-2-yl]phenyl]-1,2,3,4-tetrahydronaphthalen-1-yl]pyrrolidine-2-carboxamide]
6 | 10 to 100 | 1 to 10 | 10 to 100 | CN[C@@H](C)C(=O)N[C@H](C(=O)N1CCC[C@H]1C(=O)N[C@@H]1CCCc2c(-c3cccc(-c4cccc5c4CCC[C@H]5NC(=O)[C@@H]4CCCN4C(=O)[C@@H](NC(=O)[C@H](C)NC)C(C)(C)C)c3)cccc21)C(C)(C)C [Compound III-F, (2S)-1-[(2S)-3,3-dimethyl-2-[(2S)-2-(methylamino)propanamido]butanoyl]-N-[(1R)-5-[3-[(5R)-5-[(2S)-1-[(2S)-3,3-dimethyl-2-[(2S)-2-(methylamino)propanamido]butanoyl]pyrrolidine-2-amido]-5,6,7,8-tetrahydronaphthalen-1-yl]phenyl]-1,2,3,4-tetrahydronaphthalen-1-yl]pyrrolidine-2-carboxamide]
7 | 100 to 1000 | 1 to 10 | 100 to 1000 | CN[C@@H](C)C(=O)N[C@H](C(=O)N1CCC[C@H]1C(=O)N[C@@H]1CCCc2c(OCc3ccc(COc4cccc5c4CCC[C@H]5NC(=O)[C@@H]4CCCN4C(=O)[C@@H](NC(=O)[C@H](C)NC)C4CCCCC4)cc3)cccc21)C1CCCCC1 [Compound I-F, (2S)-1-[(2S)-2-cyclohexyl-2-[(2S)-2-(methylamino)propanamido]acetyl]-N-[(1R)-5-[[4-([[(5R)-5-[(2S)-1-[(2S)-2-cyclohexyl-2-[(2S)-2-(methylamino)propanamido]acetyl]pyrolidine-2-amido]-5,6,7,8-tetrahydronaphthalen-1-yl]oxy]methyl)phenyl]methoxy]-1,2,3,4-tetrahydronaphthalen-1-yl]pyrrolidine-2-carboxamide]
8 | 10 to 100 | 1 to 10 | 10 to 100 | CN[C@@H](C)C(=O)N[C@H](C(=O)N1CCC[C@H]1C(=O)N[C@@H]1CCCc2c(OCC#CCOc3cccc4c3CCC[C@H]4NC(=O)[C@@H]3CCCN3C(=O)[C@@H](NC(=O)[C@H](C)NC)C3CCCCC3)cccc21)C1CCCCC1 [Compound IV-B, (S)-1-((S)-2-Cyclohexyl-2-((S)-2-(methylamino)propanamido)acetyl)-N—((R)-5-(4-((R)-5-((S)-1-((S)-2-cyclohexyl-2-((S)-2-(methylamino)propanamido)acetyl)pyrrolidine-2-carboxamido)-5,6,7,8-tetrahydronaphthalen-1-yloxy)but-2-ynyloxy)-1,2,3,4-tetrahydronaphthalen-1-yl)pyrrolidine-2-carboxamide]
9 | 10 to 100 | 1 to 10 | 10 to 100 | CN[C@@H](C)C(=O)N[C@H](C(=O)N1CCC[C@H]1C(=O)N[C@@H]1CCCc2c(Oc3cccc4c3CCC[C@H]4NC(=O)[C@@H]3CCCN3C(=O)[C@@H](NC(=O)[C@H](C)NC)C(C)C)cccc21)C(C)C [Compound X-B, (S)-1-(Methyl-L-alanyl-L-valyl)-N—((R)-5-(((R)-5-((S)-1-(methyl-L-alanyl-L-valyl)pyrrolidine-2-carboxamido)-5,6,7,8-tetrahydronaphthalen-1-yl)oxy)-1,2,3,4-tetrahydronaphthalen-1-yl)pyrrolidine-2-carboxamide]
10 | 10 to 100 | 1 to 10 | 10 to 100 | CN[C@@H](C)C(=O)N[C@H](C(=O)N1CCC[C@H]1C(=O)N[C@@H]1CCCc2c(Oc3cccc4c3CCC[C@H]4NC(=O)[C@@H]3CCCN3C(=O)[C@@H](NC(=O)[C@H](C)NC)C3CCCCC3)cccc21)C1CCCCC1 [Compound X, (2S)-1-[(2S)-2-cyclohexyl-2-[(2S)-2-(methylamino)propanamido]acetyl]-N-[(1R)-5-[[(5R)-5-[(2S)-1-[(2S)-2-cyclohexyl-2-[(2S)-2-(methylamino)propanamido]acetyl]pyrrolidine-2-amido]-5,6,7,8-tetrahydronaphthalen-1-yl]oxy]-1,2,3,4-tetrahydronaphthalen-1-yl]pyrrolidine-2-carboxamide]
11 | 10 to 100 | 1 to 10 | 10 to 100 | CC[C@H](NC(=O)[C@H](C)NC)C(=O)N1CCC[C@H]1C(=O)N[C@@H]1CCCc2c(Oc3cccc4c3CCC[C@H]4NC(=O)[C@@H]3CCCN3C(=O)[C@H](CC)NC(=O)[C@H](C)NC)cccc21 [Compound X-A]
